Measurements published in article PMC5884943, “Discovery of Novel Inhibitors of Indoleamine 2,3-Dioxygenase 1 Through Structure-Based Virtual Screening” (Frontiers in Pharmacology, 2018).

Columns and labels:
human IDO1 protein = molecular target: T1, human IDO1 protein (Homo sapiens, UniProt P14902); experiment: Enzymatic IDO1 assay (Absorbance 321 assay); format: biochemical; conditions: for inhibition at 20 µM: 20 μM compound, read-out: Inhibition ratio (%) @ 20 μM; for Avg_Inh (%) @ 50uM: average inhibition, Table S2; for IC50: IDO1 enzymatic level; for Background (%): background signal of the compound in the absorbance assay
T1 construct: purchased ChemPartner Lot; No. 20160706
Experimental: The standard assay mixture contained modified potassium phosphate buffer at pH 6.5, 100 μM L-tryptophan (Sigma, Cat. […] No. […]). […] Then the assay plate was read at OD321 kinetically in Spectramax. […] Fit the data in […]5.0 software to obtain IC50-values using Equation (2): (2) Y=Bottom+Top-Bottom/1+10^(logIC50-X)×HillSlope where Y stands for inhibition percentage and X stands for compound concentration. All determinations were carried out in duplicate.

IDO1 in HeLa cells = molecular target: T2, IDO1 in HeLa cells (Homo sapiens, UniProt P14902); experiment: HeLa cellular IDO1 assay (kynurenine OD 480 nm after IFN-γ); format: cell-based; conditions: IDO1 inhibition in HeLa cells, 48 h
T2 construct: endogenous in cells; host or cells: HeLa (ATCC CCL-2), stimulated with recombinant human IFN-γ
Experimental: We chose HeLa cell line (ATCC, Cat. No. CCL-2, 4965442) to detect whether our compounds could inhibit IDO activity at cellular level by optical density (OD) assay. The assay was performed in 96-well flat bottom plate (CORNING, Cat. No. 3903) seeded with 5,000 cells in a final volume of 100 μL. Each well 80 μL HeLa cells were incubated overnight at 37°C in EMEM (Invitrogen, Cat. No. 11095098) supplemented with 10% FBS (Invitrogen, Cat. No. 10099-141, Lot. No. 8153379). Then compounds that have been serial diluted were added in corresponding well and 10 μL Recombinant Human IFN-γF (Peprotech, Cat. No. 300-02) was added in each well except wells for Min (Medium containing 0.5% DMSO with cells). The mixture of cells were incubated at 37°C, 5% CO2 for 48 h. Then transferred 90 μL of supernatant to 96-well plate (CORNING, Cat. No. 3599) and store at −20°C fridge for colormetric analysis. The next day, 10 μL of 6.1 N trichloroacetic acid (Sigma, Cat. No. T0699) were added in each well after transferred 80 μL supernatant to 96-well plate (CORNING, Cat. No. 3894). Then the mixture was incubated at 50°C for 30 min. Sediments were removed by centrifuged for 10 min at 2,500 rpm. Seventy microliters of 70 μL of 2% (w/v) p-dimethylaminobenzaldehyde (Sigma-Aldrich, Cat. No. 15647-7) was added after 70 μL of the supernatant were transferred to assay plate (CORNING, Cat. No. 3635). Finally, OD-value was measured at 480 nm using an EnSpire (PE).

T1 sequence (P14902 whole entry): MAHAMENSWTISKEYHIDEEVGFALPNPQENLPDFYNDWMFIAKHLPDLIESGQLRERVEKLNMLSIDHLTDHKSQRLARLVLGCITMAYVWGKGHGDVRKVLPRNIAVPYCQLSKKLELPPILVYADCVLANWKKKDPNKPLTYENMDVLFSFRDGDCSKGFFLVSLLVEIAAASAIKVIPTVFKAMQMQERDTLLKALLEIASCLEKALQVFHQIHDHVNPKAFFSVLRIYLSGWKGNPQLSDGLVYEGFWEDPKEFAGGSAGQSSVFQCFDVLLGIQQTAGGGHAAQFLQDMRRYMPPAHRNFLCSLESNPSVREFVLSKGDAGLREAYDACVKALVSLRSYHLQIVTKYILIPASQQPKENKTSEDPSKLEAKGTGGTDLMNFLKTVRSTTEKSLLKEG
T2 sequence (P14902 whole entry): as above

Avg_Inh (%) @ 50uM (human IDO1 protein)	Background (%) (human IDO1 protein)	SMILES	other results
-2.26%	35.32%	CCC(C(=O)Nc1cccc(C(C)O)c1)c1ccccc1 (stereo not shown) [DCI-082]	–
40.17%	40.73%	Cc1ccc([N+](=O)[O-])cc1NC(=O)COc1ccc2ccccc2c1Br [DCI-083]	–
35.60%	64.61%	COc1ccc2ccccc2c1/C=N/NC(N)=S [DCI-084]	–
-4.72%	37.26%	CC(=O)Nc1ccc(NC(=O)COc2ccc(Br)cc2C)cc1 [DCI-085]	–
77.96%	50.53%	O=C(COc1ccc2ccccc2c1)Nc1cccc(Cl)c1 [DCI-086]	–
-2.50%	34.87%	Cc1cc(C)c(S(=O)(=O)N2CCC(C(N)=O)CC2)cc1C [DCI-087]	–
-0.32%	43.06%	COc1cc(C(=O)Nc2ccc(S(N)(=O)=O)cc2)cc(OC)c1OC [DCI-088]	–
-6.47%	41.00%	COc1ccc2ccccc2c1CNC(C)c1ccccc1 (stereo not shown) [DCI-091]	–
1.56%	40.57%	COc1ccc2ccccc2c1CNc1ncn[nH]1 [DCI-092]	–
2.13%	35.52%	O=C(c1ccc(OCCc2ccccc2)cc1)N1CCCC1 [DCI-093]	–
-10.06%	75.33%	Cc1cc(=O)oc2cc(OCC(O)Cn3c(C)nc4ccccc43)ccc12 (stereo not shown) [DCI-094]	–
-1.55%	43.56%	O=C(Cc1coc2ccc3ccccc3c12)N1CCCC1 [DCI-095]	–
58.68%	49.37%	Cc1ccc(C)c(NS(=O)(=O)c2ccc3ccccc3c2)c1 [DCI-096]	–
-2.09%	37.58%	COc1ccc2nc(C(C)O)[nH]c2c1 (stereo not shown) [DCI-097]	–
4.10%	35.87%	COc1ccc(C2C(C#N)=C(N)Oc3n[nH]c(-c4ccc(Cl)cc4)c32)cc1O (stereo not shown) [DCI-098]	–
27.63%	49.90%	Cc1cc2ccccc2n2c(SCC(=O)Nc3ccc(S(N)(=O)=O)cc3)nnc12 [DCI-099]	–
94.68%	57.16%	O=S(=O)(c1ccc(N=Cc2c(O)ccc3ccccc23)cc1)N1CCCCC1 [DCI-100]	–
-0.96%	35.16%	c1ccc(CNCC2OCCc3ccccc32)cc1 (stereo not shown) [DCI-101]	–
43.77%	52.04%	CCn1c(SCc2nc3ccccc3[nH]2)nc2cc(C(=O)OC)ccc2c1=O [DCI-103]	–
25.72%	41.51%	O=C(NCCc1cccc(Cl)c1)c1cccc2ccccc12 [DCI-104]	–

The next lines start with the molecule.

SMILES	Avg_Inh (%) @ 50uM (human IDO1 protein)	Background (%) (human IDO1 protein)	other results
Clc1ccc(N2COc3ccc4ccccc4c3C2)cc1 [DC-I028]	82.33%	55.25%	inhibition at 20 µM (human IDO1 protein): 58%; Inhibition ratio (%) @ 50 μM (human IDO1 protein; 50 μM compound): 82%; IC50 (human IDO1 protein): 21.6 µM; IC50 (IDO1 in HeLa cells): 89.1 µM
Cc1ccc(Cl)cc1N1COc2ccc3ccccc3c2C1 [DC-I02802]	–	–	inhibition at 20 µM (human IDO1 protein): 42.2%; IC50 (human IDO1 protein): 44.2 µM; IC50 (IDO1 in HeLa cells): 56 µM
CCCc1[nH]nc2c1C(c1cccc(O)c1)C(C#N)=C(N)O2 (stereo not shown) [DCI-043]	1.84%	30.60%	–
CCOc1nccc2sc3ccccc3c12 [DCI-044]	44.52%	40.43%	–
Cc1c(-c2ccccc2)nc(-c2ccccc2)[nH]c1=O [DCI-045]	11.41%	39.40%	–
O=c1cc(NCCN2CCCC2)c2ccccc2o1 [DCI-047]	-3.88%	42.54%	–
COc1ccc(-c2nc(=O)cc(-c3ccccc3)o2)cc1 [DCI-048]	7.58%	71.51%	–
CC(Oc1ccccc1)C(=O)N1CCc2ccccc21 (stereo not shown) [DCI-049]	1.65%	31.42%	–
O=C(Nc1ccccc1OCC1CCCO1)NC1CCCCC1 (stereo not shown) [DCI-050]	0.29%	31.57%	–
CC(O)Cn1c(=O)c(=O)[nH]c2ccccc21 (stereo not shown) [DCI-051]	6.69%	57.46%	–
Oc1cccc(C(O)CNCc2c(Cl)cccc2Cl)c1 (stereo not shown) [DCI-052]	3.32%	31.34%	–
CC(=O)c1[nH]c2ccccc2c1C(C)=O [DCI-053]	3.68%	43.33%	–
O=C1c2ccccc2C(=O)N1CNCc1cc(=O)[nH]c(=O)[nH]1 [DCI-054]	4.51%	48.55%	–
COc1ccc2oc(C(O)c3c(C)oc4ccc(OC)cc34)cc2c1 (stereo not shown) [DCI-056]	55.55%	43.42%	–
Cc1oc2ccc(O)cc2c1C(=O)c1ccc(Br)cc1 [DCI-057]	67.78%	57.09%	–
O=C1c2ccccc2NC(c2cccc([N+](=O)[O-])c2)N1O (stereo not shown) [DCI-058]	4.69%	37.75%	–
COc1ccc(C(=O)c2c[nH]cc2-c2ccccc2)cc1 [DCI-059]	17.41%	49.85%	–
Cc1cc(C)c2c(=O)cc(C(=O)Nc3cc(-c4ccc(F)cc4)no3)oc2c1 [DCI-060]	79.74%	59.25%	–
O=C(CSc1ncnc2sc3c(c12)CCC3)Nc1ccccc1 [DCI-061]	63.45%	54.35%	–

SMILES	Avg_Inh (%) @ 50uM (human IDO1 protein)	Background (%) (human IDO1 protein)	other results
c1ccc2c3c(c(CN4CCCCC4)cc2c1)COC3 [DCI-062]	8.78%	33.45%	–
Cc1nn(C)cc1CN(C)C(=O)c1cc2ccccc2oc1=O [DCI-063]	2.41%	54.16%	–
O=C1NN(c2ncnc3sc4c(c23)CCCC4)C(=O)c2cccc3cccc1c23 [DCI-064]	6.57%	36.33%	–
Cc1nc2ccccc2cc1C(=O)N/N=C/c1cccc(Cl)c1 [DCI-065]	26.49%	68.09%	–
Cn1c(=O)c([N+](=O)[O-])c(Nc2ccc(Cl)cc2)c2ccccc21 [DCI-066]	24.55%	53.30%	–
Cc1onc(-c2ccccc2Cl)c1C(=O)Nc1cccc([N+](=O)[O-])c1 [DCI-067]	28.06%	37.16%	–
CCn1c(SCC(=O)Nc2ccccc2[N+](=O)[O-])nnc1-c1ccc(O)cc1 [DCI-068]	5.69%	35.54%	–
Cc1ccc(C2C(C#N)=C(N)Oc3ccc4ccc(O)cc4c32)cc1 (stereo not shown) [DCI-069]	79.20%	42.53%	–
COc1cc(C)c(Cl)cc1S(=O)(=O)Nc1cccc(C)c1C [DCI-070]	46.52%	35.28%	–
CC(C)(C)NC(=O)Cc1coc2ccc3ccccc3c12 [DCI-071]	22.41%	39.05%	–
O=[N+]([O-])c1ccccc1Sc1c(O)ccc2ccccc12 [DCI-072]	74.65%	49.90%	–
O=c1/c(=C/c2c(O)ccc3ccccc23)sc2n1CCCN=2 [DCI-073]	64.05%	54.63%	–
CCc1ccc(OCC(=O)Nc2ccccc2C(N)=O)c(Br)c1 [DCI-074]	21.71%	35.63%	–
O=C(COc1ccc2ccccc2c1)c1ccc(Br)cc1 [DCI-075]	79.98%	55.42%	–
Cc1ccccc1C(=O)Oc1ccc2ccc(O)cc2c1 [DCI-076]	43.35%	40.50%	–
N#CCn1nc(-c2ccc(Cl)cc2)c2c1-c1ccccc1C2 [DCI-077]	51.64%	57.47%	–
Cc1cc(C)c2c(N)c(C(=O)Nc3ccc(S(N)(=O)=O)cc3)sc2n1 [DCI-078]	-8.99%	62.57%	–
O=C(O)c1ccc(Cn2nnc3cc4ccccc4cc32)cc1 [DCI-080]	-3.23%	48.38%	–
O=c1[nH]c(CN2CCOCC2)nc2ccccc12 [DCI-081]	-6.95%	38.30%	–
